How the values were obtained:
Assay in all cases: relative viability (nuclei count vs DMSO), 5 days (fraction); higher = more cells survive
AGI-6780 + Vorinostat = compound: O=C(Nc1cccc(C(F)(F)F)c1)Nc1cc(S(=O)(=O)NC2CC2)ccc1-c1ccsc1 [AGI-6780] + O=C(CCCCCCC(=O)Nc1ccccc1)NO [Vorinostat] (partner 1 µM)
In short: (§1)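 Lung cancer cell lines in 1536-well plates got either a single drug or a fixed anchor-drug dose together with five library-drug doses (not always all listed) in √10 steps, by pin tool, on the day after seeding. Nuclei were counted after 5 days, and relative viability is the treated-to-vehicle ratio of nuclei counts. Values are medians of duplicate plates.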

AGI-6780 + Tozasertib = compound: O=C(Nc1cccc(C(F)(F)F)c1)Nc1cc(S(=O)(=O)NC2CC2)ccc1-c1ccsc1 [AGI-6780] + Cc1cc(Nc2cc(N3CCN(C)CC3)nc(Sc3ccc(NC(=O)C4CC4)cc3)n2)n[nH]1 [Tozasertib] (partner 0.1 µM)
In short: as §1

AGI-6780 + Crizotinib = compound: O=C(Nc1cccc(C(F)(F)F)c1)Nc1cc(S(=O)(=O)NC2CC2)ccc1-c1ccsc1 [AGI-6780] + C[C@@H](Oc1cc(-c2cnn(C3CCNCC3)c2)cnc1N)c1c(Cl)ccc(F)c1Cl [Crizotinib] (partner 1 µM)
In short: as §1

AGI-6780 + Navitoclax = compound: O=C(Nc1cccc(C(F)(F)F)c1)Nc1cc(S(=O)(=O)NC2CC2)ccc1-c1ccsc1 [AGI-6780] + CC1(C)CCC(c2ccc(Cl)cc2)=C(CN2CCN(c3ccc(C(=O)NS(=O)(=O)c4ccc(N[C@H](CCN5CCOCC5)CSc5ccccc5)c(S(=O)(=O)C(F)(F)F)c4)cc3)CC2)C1 [Navitoclax] (partner 0.5 µM)
In short: as §1

Cell Line	relative viability (AGI-6780 + Vorinostat; first compound 0.08 µM)	relative viability (AGI-6780 + Vorinostat; first compound 0.253 µM)	relative viability (AGI-6780 + Vorinostat; first compound 0.8 µM)	relative viability (AGI-6780 + Vorinostat; first compound 2.53 µM)	relative viability (AGI-6780 + Vorinostat; first compound 8 µM)	relative viability (AGI-6780 + Tozasertib; first compound 0.08 µM)	relative viability (AGI-6780 + Tozasertib; first compound 0.253 µM)	relative viability (AGI-6780 + Tozasertib; first compound 0.8 µM)	relative viability (AGI-6780 + Tozasertib; first compound 2.53 µM)	relative viability (AGI-6780 + Tozasertib; first compound 8 µM)	relative viability (AGI-6780 + Crizotinib; first compound 0.08 µM)	relative viability (AGI-6780 + Crizotinib; first compound 0.253 µM)	relative viability (AGI-6780 + Crizotinib; first compound 0.8 µM)	relative viability (AGI-6780 + Crizotinib; first compound 2.53 µM)	relative viability (AGI-6780 + Crizotinib; first compound 8 µM)	relative viability (AGI-6780 + Navitoclax; first compound 0.08 µM)	relative viability (AGI-6780 + Navitoclax; first compound 0.253 µM)	relative viability (AGI-6780 + Navitoclax; first compound 0.8 µM)	relative viability (AGI-6780 + Navitoclax; first compound 2.53 µM)	relative viability (AGI-6780 + Navitoclax; first compound 8 µM)
COR-L23	0.348	0.425	0.429	0.554	0.453	0.224	0.216	0.206	0.213	0.178	0.678	0.622	0.564	0.754	0.617	1.01	0.961	0.985	1.02	1.11
LK-2	0.334	0.286	0.347	0.259	0.567	0.178	0.16	0.147	–	0.162	0.262	0.209	0.271	–	0.211	0.891	0.844	1.01	–	1.11
PC-14	0.919	0.708	0.845	0.779	0.799	0.57	0.583	0.658	0.582	0.569	0.902	0.867	0.971	0.851	0.928	1.06	0.967	0.849	1.01	0.952
SW 1573	0.792	0.75	0.999	–	0.972	0.175	0.261	0.254	–	0.139	0.786	0.883	0.912	0.681	0.815	1.21	1.07	1.14	0.973	1.14
NCI-H2085	0.787	0.832	0.841	0.865	0.727	0.755	0.736	0.779	0.809	0.61	0.817	1.01	0.926	0.933	0.927	1.15	1.07	1.1	1.08	1.2
NCI-H441	0.748	0.711	0.853	0.547	0.676	0.608	0.733	0.474	0.415	0.599	0.766	0.988	1.05	0.513	0.887	0.702	0.993	0.604	0.487	0.663
NCI-H1648	0.377	0.689	0.566	0.423	0.419	0.45	0.581	0.639	0.401	0.378	–	–	–	–	–	–	–	–	–	–
NCI-H2126	0.855	0.884	0.79	0.585	0.758	0.82	0.838	0.89	0.726	0.857	1.1	1.01	1.03	1.02	1.05	0.926	0.898	0.839	0.738	0.84
LXF-289	0.858	0.788	0.736	0.843	0.778	0.201	0.225	0.152	0.131	0.25	0.84	0.798	0.795	0.83	0.771	0.967	0.939	0.936	0.987	0.939
HCC-44	1.16	1.03	1.13	1.08	1.11	0.831	1.02	1.25	0.981	0.814	0.769	0.811	0.82	0.855	0.821	0.969	1.02	0.94	0.856	1.11
EMC-BAC-2	–	0.453	0.809	0.4	0.421	0.278	0.295	0.249	0.253	0.324	0.791	0.728	0.763	0.668	0.78	1.19	1.14	1.23	1.14	1.17
NCI-H522	0.922	0.946	1.05	–	0.825	0.485	0.5	0.606	0.534	0.53	–	–	–	–	–	–	–	–	–	–
NCI-H1792	–	–	–	–	–	–	–	–	–	–	0.836	0.993	1.07	0.931	0.989	0.377	0.613	0.834	0.629	0.625
NCI-H661	0.815	0.863	0.809	0.793	0.734	0.367	0.36	0.357	0.345	0.354	1.02	0.921	1.22	0.996	1.08	–	–	–	–	–
LCLC-103H	0.746	0.861	0.759	0.576	0.781	0.492	0.475	0.51	0.451	0.562	1.08	1.12	1	1.03	1.01	–	–	–	–	–
NCI-H1793	0.69	0.807	0.797	0.666	0.685	0.355	0.318	0.351	0.332	0.312	–	–	–	–	–	0.977	0.365	0.455	0.386	0.519
HOP-62	0.61	0.833	0.655	0.617	0.813	0.328	0.366	0.398	0.302	0.408	0.857	0.919	0.971	0.731	0.502	0.974	1.01	1.13	1.11	1.19
HCC-827	0.983	0.849	0.896	0.802	1	0.226	0.433	0.41	0.405	0.432	0.965	0.9	0.861	0.981	0.943	1.09	1.06	1	1.01	0.935
NCI-H2087	0.546	0.646	0.719	0.744	0.868	0.288	0.213	0.224	0.27	0.284	0.869	0.922	0.851	0.86	0.919	1.08	0.986	0.98	0.982	0.97
